In patent US11008323B2, “Substituted tricyclic 1,4-benzodiazepinone derivatives as allosteric modulators of group II metabotropic glutamate receptors” (Domain Therapeutics, priority 2015, dated 2021):
Structures can show the parent of a compound that is named as a salt.

System: not given
Experiment: not given
Settings: not given

Row | Structure (SMILES) | melting point [°C]
1 | CN1C(=O)c2cc(-c3ccccc3)nn2-c2cc(-c3cccc(S(=O)(=O)N(C)C)c3)ccc2C12CC2 [Example 142, N,N-dimethyl-3-(5-methyl-4-oxo-2-phenyl-4,5-dihydrospiro[benzo[f]pyrazolo[1,5-a][1,4]diazepine-6,1′-cyclopropan]-9-yl)benzenesulfonamide] | 182 to 189
2 | CN1C(=O)c2cccn2-c2cc(-c3ccnc(F)c3)ccc2C12CC2 [Example 34, 5-Methyl-9-(2-fluoropyridin-4-yl)-spiro[benzo[f]pyrrolo[1,2-a][1,4]diazepine-6,1′-cyclopropan]-4(5H)-one] | 197 to 201
3 | CN1C(=O)c2cccn2-c2cc(-c3cccnc3C(F)(F)F)ccc2C12CC2 [Example 36, 5-Methyl-9-(2-trifluoromethylpyridin-3-yl)-spiro[benzo[f]pyrrolo[1,2-a][1,4]diazepine-6,1′-cyclopropan]-4(5H)-one] | 160 to 165
4 | CN1C(=O)c2cccn2-c2cc(-c3c[nH]nc3C(F)(F)F)ccc2C12CC2 [Example 28, 5-Methyl-9-(3-trifluoromethyl-1H-pyrazol-4-yl)-spiro[benzo[f]pyrrolo[1,2-a][1,4]diazepine-6,1′-cyclopropan]-4(5H)-one] | > 250
5 | COC(=O)c1ncccc1-c1ccc2c(c1)-n1cccc1C(=O)N(C)C21CC1 [Example 71, 5-Methyl-9-(2-methoxycarbonylpyridin-3-yl)-spiro[benzo[f]pyrrolo[1,2-a][1,4]diazepine-6,1′-cyclopropan]-4(5H)-one] | 198 to 203
6 | Cc1ccc(-c2ccc3c(c2)-n2cc(-c4ccnn4C)cc2C(=O)N(C)C32CC2)cn1 (as salt: hydrochloride) [Example 159] | 187 to 194
7 | Cc1ncccc1-c1ccc2c(c1)-n1cccc1C(=O)N(C)C2C (centres unmarked) (as salt: hydrochloride) [Example 218, 5,6-Dimethyl-9-(2-methyl-pyridin-3-yl)-5,6-dihydro-benzo[f]pyrrolo[1,2-a][1,4]diazepin-4-one] | 140 to 156
8 | Cc1ncccc1-c1ccc2c(c1)-n1cc(C(=O)C3CCCC3)cc1C(=O)N(C)C21CC1 (as salt: hydrochloride) [Example 194] | 177 to 190
9 | Cc1ncccc1-c1ccc2c(c1)-n1cc(-c3cnc[nH]3)cc1C(=O)N(C)C21CC1 (as salt: hydrochloride) [Example 183] | > 250
10 | CN1C(=O)c2cccn2-c2cc(-c3ccc(N4CCCCC4)nc3)ccc2C12CC2 (as salt: hydrochloride) [Example 43, 5-Methyl-9-(3,4,5,6-tetrahydro-2H-[1,2′]bipyridinyl-5′-yl)-spiro[benzo[f]pyrrolo[1,2-a][1,4]diazepine-6,1′-cyclopropan]-4(5H)-one] | 188 to 193
11 | Cc1cc(-c2ccc3c(c2)-n2cc(-c4ccccc4)cc2C(=O)N(C)C32CC2)ccn1 (as salt: hydrochloride) [Example 105, 5-Methyl-2-phenyl-9-(2-methyl-pyridin-4-yl)-spiro[benzo[f]pyrrolo[1,2-a][1,4]diazepine-6,1′-cyclopropan]-4(5H)-one] | 225 to 235
12 | CN1C(=O)c2cccn2-c2cc(C3=CCNCC3)ccc2C12CC2 (as salt: hydrochloride) [Example 46, 5-Methyl-9-(1,2,3,6-tetrahydro-pyridin-4-yl)-spiro[benzo[f]pyrrolo[1,2-a][1,4]diazepine-6,1′-cyclopropan]-4(5H)-one] | 208 to 215
13 | Cc1nccnc1-c1ccc2c(c1)-n1cccc1C(=O)N(C)C21CC1 (as salt: hydrochloride) [Example 58, 5-Methyl-9-(3-methyl-pyrazin-2-yl)-5,6-spiro[benzo[f]pyrrolo[1,2-a][1,4]diazepine-6,1′-cyclopropan]-4(5H)-one] | 123 to 129
14 | CN1C(=O)c2cccn2-c2cc(-c3cnc(N)c(C(F)(F)F)c3)ccc2C12CC2 (as salt: hydrochloride) [Example 40, 5-Methyl-9-(6-amino-5-trifluoromethyl-pyridin-3-yl)-spiro[benzo[f]pyrrolo[1,2-a][1,4]diazepine-6,1′-cyclopropan]-4(5H)-one] | > 250
15 | CC(=O)c1cc2n(c1)-c1cc(-c3cccnc3C)ccc1C1(CC1)N(C)C2=O (as salt: hydrochloride) [Example 195] | 200 to 220
16 | Cc1ncccc1-c1ccc2c(c1)-n1cc(CC3CCCC3)cc1C(=O)N(C)C21CC1 (as salt: hydrochloride) [Example 196] | 165 to 176
17 | CN1C(=O)c2cccn2-c2cc(-c3cccnc3C3CC3)ccc2C12CC2 (as salt: hydrochloride) [Example 62, 5-Methyl-9-(2-cyclopropylpyridin-3-yl)-spiro[benzo[f]pyrrolo[1,2-a][1,4]diazepine-6,1′-cyclopropan]-4(5H)-one] | 160 to 180

Row | Structure (SMILES) | melting point [°C]
18 | CCc1ccc(-c2ccc3c(c2)-n2cc(-c4ccccc4)cc2C(=O)N(C)C32CC2)cn1 (as salt: hydrochloride) [Example 112, 5-methyl-2-phenyl-9-(6-ethylpyridin-3-yl)-spiro[benzo[f]pyrrolo[1,2-a][1,4]diazepine-6,1′-cyclopropan]-4(5H)-one] | 209 to 212
19 | Cc1ncccc1-c1ccc2c(c1)-n1cc(-c3cnco3)cc1C(=O)N(C)C21CC1 (as salt: hydrochloride) [Example 182] | 158 to 168
20 | CN1C(=O)c2cccn2-c2cc(C3=CCN(c4ccncn4)CC3)ccc2C12CC2 (as salt: hydrochloride) [Example 47, 5-Methyl-9-(1-pyrimidin-4-yl-1,2,3,6-tetrahydro-pyridin-4-yl)-spiro[benzo[f]pyrrolo[1,2-a][1,4]diazepine-6,1′-cyclopropan]-4(5H)-one] | 210 to 220
21 | Cc1ncccc1-c1ccc2c(c1)-n1cc(-c3cccc(F)c3)cc1C(=O)N(C)C21CC1 (as salt: hydrochloride) [Example 152] | 183 to 190
22 | CN1Cc2ccc(-c3ccc(N)nc3)cc2-n2cc(-c3ccccc3)cc2C1=O (as salt: hydrochloride) [Example 165, 9-(6-Amino-pyridin-3-yl)-5-methyl-2-phenyl-5,6-dihydro-benzo[f]pyrrolo[1,2-a][1,4]diazepin-4-one] | > 250
23 | Cc1ncccc1-c1ccc2c(c1)-n1cc(-c3cccnc3)cc1C(=O)N(C)C21CC1 (as salt: hydrochloride) [Example 143] | > 250
24 | Cc1ccc(-c2ccc3c(c2)-n2cccc2C(=O)N(C)C32CC2)cn1 (as salt: hydrochloride) [Example 25, 5-Methyl-9-(6-methylpyridin-3-yl)-spiro[benzo[f]pyrrolo[1,2-a][1,4]diazepine-6,1′-cyclopropan]-4(5H)-one] | 205 to 215
25 | CN1C(=O)c2cc(-c3ccccc3)nn2-c2cc(-c3ccc(N)nc3)ccc2C12CC2 (as salt: hydrochloride) [Example 127, 9-(6-Amino-pyridin-3-yl)-5-methyl-2-phenyl-spiro[benzo[f]pyrazolo[1,5-a][1,4]diazepine-6,1′-cyclopropan]-4(5H)-one] | > 250
26 | CCc1ncccc1-c1ccc2c(c1)-n1cc(-c3ccccc3F)cc1C(=O)N(C)C21CC1 (as salt: hydrochloride) [Example 162] | 189 to 195
27 | CCc1ncccc1-c1ccc2c(c1)-n1cc(-c3ccccc3)cc1C(=O)N(C)C21CC1 (as salt: hydrochloride) [Example 99, 5-Methyl-2-phenyl-9-(2-ethyl-pyridin-3-yl)-spiro[benzo[f]pyrrolo[1,2-a][1,4]diazepine-6,1′-cyclopropan]-4(5H)-one] | 179 to 183
28 | Cc1ncncc1-c1ccc2c(c1)-n1cccc1C(=O)N(C)C21CC1 (as salt: hydrochloride) [Example 59, 5-Methyl-9-(4-methyl-pyrimidin-5-yl)-spiro[benzo[f]pyrrolo[1,2-a][1,4]diazepine-6,1′-cyclopropan]-4(5H)-one] | 140 to 147
29 | Cc1ccc(-c2ccc3c(c2)-n2cccc2C(=O)N(C)C32CC2)c(C)n1 (as salt: hydrochloride) [Example 56, 5-Methyl-9-(2,6-dimethylpyridin-3-yl)-spiro[benzo[f]pyrrolo[1,2-a][1,4]diazepine-6,1′-cyclopropan]-4(5H)-one] | > 250
30 | CCC1c2ccc(-c3cccnc3C)cc2-n2cccc2C(=O)N1C (centres unmarked) (as salt: hydrochloride) [Example 220, 6-Ethyl-5-methyl-9-(2-methyl-pyridin-3-yl)-5,6-dihydro-benzo[f]pyrrolo[1,2-a][1,4]diazepin-4-one] | 160 to 170
31 | Cc1ncccc1-c1ccc2c(c1)-n1cc(C3CCCC3)cc1C(=O)N(C)C21CC1 (as salt: hydrochloride) [Example 156] | 230 to 235
32 | CN1C(=O)c2cc(-c3ccccc3)cn2-c2cc(-c3cncnc3)ccc2C12CC2 (as salt: hydrochloride) [Example 104, 5-Methyl-2-phenyl-9-(pyrimidin-5-yl)-spiro[benzo[f]pyrrolo[1,2-a][1,4]diazepine-6,1′-cyclopropan]-4(5H)-one] | 168 to 173
33 | CN1C(=O)c2cc(-c3ccccc3)cn2-c2cc(-c3ccc(N)nc3)ccc2C12CC2 (as salt: hydrochloride) [Example 96, 5-Methyl-2-phenyl-9-(6-amino-pyridin-3-yl)-spiro[benzo[f]pyrrolo[1,2-a][1,4]diazepine-6,1′-cyclopropan]-4(5H)-one] | > 250

Biological target: T1, human mGluR3 (hmGluR3) (Homo sapiens, UniProt Q14832)
T1 construct: expressed in transfected cells; host or cells: HEK-293 cells, transient co-transfection by electroporation
Experiment: Human mGluR3 positive allosteric modulator evaluation using Ca++ functional assay
Assay type: cell-based
Settings: hmGluR3 transiently over-expressed in HEK-293 cells; stimulated by EC50 glutamate concentration; intracellular Ca2+ (Fluo4AM, FLIPR Tetra)
In short: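 Calcium flux (Fluo4, ex 485/em 525 nm) recorded first 10 min with compound alone, then 3 min after an EC50 glutamate challenge, giving agonist and PAM EC50 from 20-concentration sigmoidal fits. Receptor was transiently co-transfected in HEK-293 with chimeric G protein and glutamate transporters.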

T1 sequence (Q14832 23-879): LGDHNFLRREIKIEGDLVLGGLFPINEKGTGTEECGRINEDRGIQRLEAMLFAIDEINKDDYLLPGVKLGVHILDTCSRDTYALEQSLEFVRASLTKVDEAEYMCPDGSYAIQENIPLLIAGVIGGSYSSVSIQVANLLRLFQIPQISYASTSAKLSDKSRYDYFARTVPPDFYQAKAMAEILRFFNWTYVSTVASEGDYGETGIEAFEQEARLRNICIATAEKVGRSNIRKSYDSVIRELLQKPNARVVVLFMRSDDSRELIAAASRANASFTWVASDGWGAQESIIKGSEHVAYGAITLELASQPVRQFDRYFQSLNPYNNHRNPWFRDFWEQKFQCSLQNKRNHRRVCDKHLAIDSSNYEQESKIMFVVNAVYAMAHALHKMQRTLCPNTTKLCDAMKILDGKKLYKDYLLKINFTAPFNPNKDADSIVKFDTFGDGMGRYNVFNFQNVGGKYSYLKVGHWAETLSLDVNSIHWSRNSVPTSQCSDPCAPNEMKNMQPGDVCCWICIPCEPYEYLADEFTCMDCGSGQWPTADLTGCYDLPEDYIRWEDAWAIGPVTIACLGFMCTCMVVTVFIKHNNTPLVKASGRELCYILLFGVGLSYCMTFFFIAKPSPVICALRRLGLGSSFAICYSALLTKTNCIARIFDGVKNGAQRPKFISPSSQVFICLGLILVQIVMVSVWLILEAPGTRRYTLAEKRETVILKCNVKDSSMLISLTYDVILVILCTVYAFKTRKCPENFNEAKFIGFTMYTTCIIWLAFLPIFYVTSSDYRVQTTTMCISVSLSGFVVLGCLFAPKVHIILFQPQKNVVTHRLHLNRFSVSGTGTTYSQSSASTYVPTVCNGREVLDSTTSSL

Row | Structure (SMILES) | EC50 [nM]
34 | CN1C(=O)c2cc(-c3ccccc3)nn2-c2cc(-c3cccc(S(=O)(=O)N(C)C)c3)ccc2C12CC2 [Example 142, N,N-dimethyl-3-(5-methyl-4-oxo-2-phenyl-4,5-dihydrospiro[benzo[f]pyrazolo[1,5-a][1,4]diazepine-6,1′-cyclopropan]-9-yl)benzenesulfonamide] | 100 to 1000
35 | CN1C(=O)c2cccn2-c2cc(-c3ccnc(F)c3)ccc2C12CC2 [Example 34, 5-Methyl-9-(2-fluoropyridin-4-yl)-spiro[benzo[f]pyrrolo[1,2-a][1,4]diazepine-6,1′-cyclopropan]-4(5H)-one] | 100 to 1000
36 | CN1C(=O)c2cccn2-c2cc(-c3cccnc3C(F)(F)F)ccc2C12CC2 [Example 36, 5-Methyl-9-(2-trifluoromethylpyridin-3-yl)-spiro[benzo[f]pyrrolo[1,2-a][1,4]diazepine-6,1′-cyclopropan]-4(5H)-one] | 100 to 1000
37 | CN1C(=O)c2cccn2-c2cc(-c3c[nH]nc3C(F)(F)F)ccc2C12CC2 [Example 28, 5-Methyl-9-(3-trifluoromethyl-1H-pyrazol-4-yl)-spiro[benzo[f]pyrrolo[1,2-a][1,4]diazepine-6,1′-cyclopropan]-4(5H)-one] | > 1000
38 | COC(=O)c1ncccc1-c1ccc2c(c1)-n1cccc1C(=O)N(C)C21CC1 [Example 71, 5-Methyl-9-(2-methoxycarbonylpyridin-3-yl)-spiro[benzo[f]pyrrolo[1,2-a][1,4]diazepine-6,1′-cyclopropan]-4(5H)-one] | > 1000
